Laboratory results reported in patent US8153581B2, “Process for producing an injectable medicament preparation” (KTB Tumorforschungs GmbH, priority 1999, dated 2012).
Where two headings read alike, the source gives them in different places.

Legend:
[1] = target: T1, albumin (Homo sapiens, UniProt P02768); conditions: 37° C.
Description: In this experiment, the plasma sample was separated, after the incubation had taken place, on a POROS®-20 anion exchange column (the proteins were detected at 254 nm while the anthracycline was detected by fluorescence).
1.4 mg of 2 (Mr 1374) are dissolved, at room temperature, in 1.0 ml of phosphate buffer (0.15 M NaCl, 0.004 M sodium phosphate, pH 6.5) (1000 μm solution).

[2] = RENCA model, body weight change; type: in vivo, Balc/c mice; conditions: i.v. on d 10, 13, 17 and 20; approximately equitoxic doses
Description: (§1) The biological data listed below clarify the in vivo activity of DOXO-HYD as compared with that of free doxorubicin: in what is termed the RENCA (renal cell carcinoma)-model, doxorubicin and DOXO-HYD were compared with each other, at approximately equitoxic doses, as regards their antitumour activity (intravenous therapy 10 days after injecting about 1 million kidney carcinoma cells into the left kidney).
(§2) Animals: Balc/c mice, female; Tumour: RENCA, renal cell carcinoma
(§3) Therapy: Intravenous (i.v.) on day (d) 10, 13, 17 and 20, end of experiment on d24

[3] = system: RENCA, renal cell carcinoma; test: RENCA (renal cell carcinoma) model, antitumour activity; type: in vivo, Balc/c mice
Description: as §1, §2, §3

[4] = target: T1, albumin; test: Incubation with human plasma, gel filtration chromatography (Superdex 200); type: in vitro ADME; parameters: with 1.0 ml of human plasma; from tissue; host or cells: human blood plasma; conditions: 250 μl of 100 μM solution with 1.0 ml human plasma, 5 minutes
[5] = as compared with the control group and the doxorubicin-treated group, 4 × 20 mmol/kg i.v.

T1 sequence (P02768 25-609): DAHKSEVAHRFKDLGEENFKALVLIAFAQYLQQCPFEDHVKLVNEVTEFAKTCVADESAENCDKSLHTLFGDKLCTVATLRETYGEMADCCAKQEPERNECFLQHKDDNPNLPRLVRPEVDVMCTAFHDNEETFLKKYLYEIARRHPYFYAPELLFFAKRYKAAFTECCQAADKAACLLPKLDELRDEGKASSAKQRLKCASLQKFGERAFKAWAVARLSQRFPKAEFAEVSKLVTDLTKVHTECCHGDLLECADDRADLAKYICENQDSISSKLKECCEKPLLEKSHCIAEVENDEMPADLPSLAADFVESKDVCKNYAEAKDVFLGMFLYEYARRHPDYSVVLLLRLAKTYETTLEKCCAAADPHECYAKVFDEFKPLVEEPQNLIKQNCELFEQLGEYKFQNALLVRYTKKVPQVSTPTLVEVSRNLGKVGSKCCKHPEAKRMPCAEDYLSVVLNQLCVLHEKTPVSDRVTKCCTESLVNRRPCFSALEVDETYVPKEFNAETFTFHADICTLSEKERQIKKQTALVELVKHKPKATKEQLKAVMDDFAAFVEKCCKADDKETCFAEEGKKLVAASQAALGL

With COc1cccc2c1C(=O)c1c(O)c3c(c(O)c1C2=O)C[C@@](O)(C(CO)=NNC(=O)CCCCCN1C(=O)C=CC1=O)C[C@@H]3O[C@H]1C[C@H](N)[C@H](O)[C@H](C)O1 [DOXO-EMCH, 6-maleimidocaproic acid hydrazone derivative of doxorubicin] the “binding to albumin in human plasma” value ([1]; 250μ of 2000 μM solution with 1.0 ml human plasma, 30 seconds) was “majority of the DOXO-EMCH is bound to albumin”.

In the case of COc1cccc2c1C(=O)c1c(O)c3c(c(O)c1C2=O)C[C@@](O)(/C(CO)=N/NC(=O)Cc1ccc(N2C(=O)C=CC2=O)cc1)C[C@@H]3OC1CC(C)C(O)C(N)C1.Cl (some centres unmarked) [DOXO-HYD], the “covalent binding to albumin in human blood plasma” value ([1]; human blood plasma, 5 minutes of incubation) is reported as “most of the DOXO-HYD is covalently bonded to the albumin”, the “Average decrease in body weight (%) d 1-24” value [2] is reported as −15% and the antitumour activity ([3]; RENCA model, i.v. d 10, 13, 17, 20, 4 × 20 mmol/kg, end d24) is reported as “very good antitumour activity”. For the same compound, the kidney tumour volume [3, 5] was “marked reduction” and the “number of lung metastases” value [3, 5] was “marked reduction”.

In the case of COc1cccc2c1C(=O)c1c(O)c3c(c(O)c1C2=O)C[C@@](O)(C(=O)CO)C[C@@H]3O[C@H]1C[C@H](N)[C@H](O)[C@H](C)O1 [Doxorubicin, doxorubicin, reference compound], the “Average decrease in body weight (%) d 1-24” value [2] is reported as −15%.

In the case of O=C(O)c1cc(N2C(=O)C=CC2=O)ccc1-c1c2ccc(=O)cc-2oc2cc(O)ccc12 [fluoresceinmaleimide], the “binding to albumin in human plasma” value [4] is reported as “majority of the fluoresceinmaleimide is bound to albumin”.
